The subject of this assay is intestinal tight junction permeability. The experiment in a line: Inflammatory mediated intestinal tight junction permeability.

Regarding `CCCCC/C=C\C/C=C\C/C=C\CCCCC(=O)O` [GLA, gamma linolenic acid], the “reduction of inflammatory mediated intestinal tight junction permeability” value is “effectively reduce”.

(Values after patent US20090082249A1, “NUTRITIONAL SUPPLEMENT FOR A CATEGORY OF HIV PATIENTS” (N.V. Nutricia, priority 2005, published 2009).)
